Measured values from paper PMC5701185, “Evidence for PII with NAGK interaction that regulates Arg synthesis in the microalga Myrmecia incisa in response to nitrogen starvation” (Scientific Reports, 2017).

Tests used:
MiPII with MiNAGK [1] = target: T1, MiPII with MiNAGK (Lobosphaera incisa, UniProt A0A2R4H197); assay: hydroxamate-Fe([…]+) NAGK assay, […] nm; assay type: biochemical; conditions: read-out: % inhibition at 1 mM
T1 construct: gene glnB; same proteins as P2; effector site on PII (209-aa precursor, 52-aa signal peptide removed, N-terminal His-tag kept, 21-kD band); read-out NAGK activity; with Acetylglutamate kinase, chloroplastic

MiPII with MiNAGK [2] = target: T1, MiPII with MiNAGK; assay: hydroxamate-Fe([…]+) NAGK assay, […] nm; assay type: biochemical; conditions: read-out: half-maximal effective concentration
[3] = target: recombinant MiPII fused to the His-tag (pET-PII) (Myrmecia incisa); assay: co-IP; purified recombinant MiPII (200 ug) and MiNAGK (400 ug) in 1 mL 50 mM Tris-HCl pH 7.5, 100 mM KCl, with ATP (3 mM) and Mg2+ (6 mM), with or without 2-OG (5 mM); 1 h at room temperature; precipitated with rabbit anti-MiPII polyclonal antibody and protein A Sepharose; SDS-PAGE, Coomassie staining, band intensity by ImageJ
[4] = target: recombinant MiNAGK fused to the His-tag (pET-NAGK) (Myrmecia incisa)
recombinant MiNAGK fused to the His-tag (pET-NAGK) (Myrmecia incisa), sequence (main, as listed by the source): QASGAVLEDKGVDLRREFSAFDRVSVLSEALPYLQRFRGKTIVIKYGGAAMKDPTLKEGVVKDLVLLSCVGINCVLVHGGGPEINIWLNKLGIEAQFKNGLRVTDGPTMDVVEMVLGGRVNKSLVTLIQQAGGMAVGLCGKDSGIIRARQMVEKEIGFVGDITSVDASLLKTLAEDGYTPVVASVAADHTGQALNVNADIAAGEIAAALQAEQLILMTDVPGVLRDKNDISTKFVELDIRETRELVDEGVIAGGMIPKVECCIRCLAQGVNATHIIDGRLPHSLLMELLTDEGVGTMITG

T1 sequence (A0A2R4H197 53-209): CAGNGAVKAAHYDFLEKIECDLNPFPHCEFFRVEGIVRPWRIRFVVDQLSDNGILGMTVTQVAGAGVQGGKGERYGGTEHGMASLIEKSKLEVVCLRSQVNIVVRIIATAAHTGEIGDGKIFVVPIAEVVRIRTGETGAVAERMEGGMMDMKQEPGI
recombinant MiPII fused to the His-tag (pET-PII) (Myrmecia incisa), sequence (main, as listed by the source): as the sequence (A0A2R4H197 53-209) above

`O=C(O)CCC(=O)C(=O)O` [2-OG] gave an inhibition at 1000 µM (MiPII with MiNAGK [1]) of about 30%.
`NC(=O)CC[C@H](N)C(=O)O` [Gln] showed an EC50 (MiPII with MiNAGK [2]) of about 3 mM.
“recombinant MiNAGK fused to the His-tag (pET-NAGK) (enzyme)” gave an intensity of the stained MiNAGK band in the precipitate with 2-OG relative to without 2-OG [3] of 0.65 times.
With “recombinant MiPII fused to the His-tag (pET-PII) (natural protein)” the specific activity of recombinant MiNAGK with MiPII (10 ug) and Gln (10 mM), 2-OG from 0 to 4 mM; value at 1 mM 2-OG [4] was 30%.
